Reference: patent publication US10011573B2, “Human androgen receptor DNA-binding domain (DBD) compounds as therapeutics and methods for their use” (The University of British Columbia, priority 2014, dated 2018)
Where a chain is given by its changes, count along the chain named.

Tests used:
androgen receptor (AR) = target: T1, androgen receptor (AR) (Homo sapiens, UniProt P10275, T878A); assay: eGFP cellular AR transcription assay (LNCaP eGFP cells, LN-ARR2PB-eGFP)
T1 sequence (P10275 1-920 T878A): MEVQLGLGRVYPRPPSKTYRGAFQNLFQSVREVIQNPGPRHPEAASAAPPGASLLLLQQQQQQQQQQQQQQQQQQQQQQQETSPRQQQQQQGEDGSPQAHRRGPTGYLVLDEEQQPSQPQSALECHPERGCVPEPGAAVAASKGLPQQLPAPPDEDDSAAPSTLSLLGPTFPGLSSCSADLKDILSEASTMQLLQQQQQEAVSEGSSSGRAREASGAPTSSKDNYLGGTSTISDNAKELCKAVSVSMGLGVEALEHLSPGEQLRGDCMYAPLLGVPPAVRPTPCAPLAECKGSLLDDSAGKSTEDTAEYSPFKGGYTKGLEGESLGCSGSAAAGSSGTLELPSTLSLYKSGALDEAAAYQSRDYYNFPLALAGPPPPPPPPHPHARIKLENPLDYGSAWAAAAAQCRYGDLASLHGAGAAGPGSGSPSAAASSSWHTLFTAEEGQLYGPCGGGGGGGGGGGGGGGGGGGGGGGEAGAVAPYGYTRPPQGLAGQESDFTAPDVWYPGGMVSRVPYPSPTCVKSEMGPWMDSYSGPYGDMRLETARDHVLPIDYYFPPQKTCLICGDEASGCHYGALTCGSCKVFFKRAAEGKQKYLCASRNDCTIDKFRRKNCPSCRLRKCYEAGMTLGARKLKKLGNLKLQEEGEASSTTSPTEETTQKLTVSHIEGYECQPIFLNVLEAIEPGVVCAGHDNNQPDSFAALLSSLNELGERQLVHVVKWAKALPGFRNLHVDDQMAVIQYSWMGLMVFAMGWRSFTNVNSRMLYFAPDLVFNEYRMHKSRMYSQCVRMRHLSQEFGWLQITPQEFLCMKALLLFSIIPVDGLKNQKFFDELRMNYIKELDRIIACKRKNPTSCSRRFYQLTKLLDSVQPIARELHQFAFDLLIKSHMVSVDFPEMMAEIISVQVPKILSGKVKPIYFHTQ

YFP-V7 = target: T2, YFP-V7 (Homo sapiens, UniProt P10275); assay: Luciferase assay with YFP-V7 in PC3 cells; type: cell-based
T2 construct: expressed in transfected cells; host or cells: PC3
Description: (§1) the underlined primer sections anneal to the specified template, although their 5′-extensions (italicized) are complementary to the corresponding primer sequence of the other PCR. Plasmid assembly is achieved by mixing the PCR products from each reaction (Klock, H. E. et al. (2008) Combining the polymerase incomplete primer extension method for cloning and mutagenesis with microscreening to accelerate structural genomics efforts. Proteins 71, 982-994), followed by transformation into chemically competent bacteria. A similar strategy was used to clone the AR-DBD+hinge into the Pan4 vector (avidity) expressing the N-terminal biotinylation sequence ([…] ) and C-terminal His tag. YFP-AR plasmid was a gift from Dr. Jan Trapman (van Royen, M. E. et al. (2012) Stepwise androgen receptor dimerization. J. Cell Sci. 125, 1970-1979) and is based on pEYFP-C1 (Clontech™). YFP-V7 was constructed by polymerase incomplete primer extension method using the following primers and templates: AR-V7 insert from pcDNA3. AR-V7 template

YFP-AR = target: T3, YFP-AR (Homo sapiens, UniProt P10275); assay: Luciferase assay with YFP-AR in PC3 cells; type: cell-based
T3 construct: plasmids encoding YFP-tagged full-length AR (yellow fluorescent protein, YFP-AR); expressed in transfected cells; host or cells: PC3
T3 sequence (P10275 1-920): T1 sequence (P10275 1-920 T878A) with A878T
Description: as §1

PC3 cells = assay: Cell viability (MTS) assay, PC3; type: cell-based, human; settings: 0.1 nM R1881
Method: 1. Cell Culture: LNCaP and PC3 human prostate cancer cells were obtained from American Type Culture Collection (ATCC, Manassas, Va.) and grown in RPMI 1640 medium supplemented with 5% fetal bovine serum (FBS) (Invitrogen). […]. All cells were maintained at 37° C. in 5% CO2.
7. Cell viability assay: The PC3, LNCaP, and MDV3100-resistant cells were plated at 3,000 cells per well in RPMI 1640 containing 5% charcoal stripped serum (CSS) in a 96-well plate, treated with 0.1 nM R1881 and compounds (0-25 μM) for 96 hrs.

AR v567es = assay: ARR3tk-luciferase assay in R1-D567 cells; type: cell-based, human
AR Y594A mutant = AR Y594A mutant (Homo sapiens, UniProt P10275, Y594A); assay: ARR3tk-luciferase reporter assay in PC3 cells, AR Y594A
Method: Cells were then treated with compounds at various concentrations and 0.1 nMR1881 (in 100% ethanol) for 24 h. […] Cell lysis was carried out with 60 μl of 1X passive lysis buffer/well (Promega™)
20 μl of cell lysate from each well were mixed with 50 μl of luciferase assay reagent (Promega™), and luminescence was recorded on a TECAN™ M200pro plate reader. Luciferase assays with splice variant AR were performed the same way but with only 5 ng of pcDNA3.1 AR-V7 (to limit the high level of AR-V7 expression) and no R1881.

[1] = eGFP IC50, LNCaP eGFP cells, 0.1 nM R1881

AR Y594A mutant, sequence (P10275 whole entry Y594A): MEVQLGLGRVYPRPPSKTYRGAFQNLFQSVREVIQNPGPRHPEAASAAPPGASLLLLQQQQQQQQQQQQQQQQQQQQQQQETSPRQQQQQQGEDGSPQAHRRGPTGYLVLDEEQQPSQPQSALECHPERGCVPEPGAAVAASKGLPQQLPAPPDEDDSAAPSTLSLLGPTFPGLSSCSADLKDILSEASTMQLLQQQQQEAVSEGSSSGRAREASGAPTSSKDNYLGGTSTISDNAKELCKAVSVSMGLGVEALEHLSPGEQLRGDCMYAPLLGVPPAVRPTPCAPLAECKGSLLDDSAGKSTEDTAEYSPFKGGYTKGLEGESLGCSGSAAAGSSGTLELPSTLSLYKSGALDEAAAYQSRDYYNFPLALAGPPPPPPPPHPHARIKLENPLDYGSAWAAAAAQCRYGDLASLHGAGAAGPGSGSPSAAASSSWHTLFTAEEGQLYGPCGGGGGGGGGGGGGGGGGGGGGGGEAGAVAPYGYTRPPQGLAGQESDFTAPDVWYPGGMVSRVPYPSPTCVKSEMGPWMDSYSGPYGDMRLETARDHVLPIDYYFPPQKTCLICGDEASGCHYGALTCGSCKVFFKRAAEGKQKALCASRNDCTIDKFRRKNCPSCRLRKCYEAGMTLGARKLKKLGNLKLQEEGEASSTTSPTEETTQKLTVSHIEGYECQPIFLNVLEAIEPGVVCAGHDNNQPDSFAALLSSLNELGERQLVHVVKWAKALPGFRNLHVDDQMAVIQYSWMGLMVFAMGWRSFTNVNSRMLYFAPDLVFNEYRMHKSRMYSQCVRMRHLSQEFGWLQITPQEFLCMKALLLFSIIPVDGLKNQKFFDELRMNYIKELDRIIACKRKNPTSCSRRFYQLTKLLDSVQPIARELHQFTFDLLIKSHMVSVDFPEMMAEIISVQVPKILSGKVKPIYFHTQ
T2 sequence (P10275 1-644 isoform P10275-3): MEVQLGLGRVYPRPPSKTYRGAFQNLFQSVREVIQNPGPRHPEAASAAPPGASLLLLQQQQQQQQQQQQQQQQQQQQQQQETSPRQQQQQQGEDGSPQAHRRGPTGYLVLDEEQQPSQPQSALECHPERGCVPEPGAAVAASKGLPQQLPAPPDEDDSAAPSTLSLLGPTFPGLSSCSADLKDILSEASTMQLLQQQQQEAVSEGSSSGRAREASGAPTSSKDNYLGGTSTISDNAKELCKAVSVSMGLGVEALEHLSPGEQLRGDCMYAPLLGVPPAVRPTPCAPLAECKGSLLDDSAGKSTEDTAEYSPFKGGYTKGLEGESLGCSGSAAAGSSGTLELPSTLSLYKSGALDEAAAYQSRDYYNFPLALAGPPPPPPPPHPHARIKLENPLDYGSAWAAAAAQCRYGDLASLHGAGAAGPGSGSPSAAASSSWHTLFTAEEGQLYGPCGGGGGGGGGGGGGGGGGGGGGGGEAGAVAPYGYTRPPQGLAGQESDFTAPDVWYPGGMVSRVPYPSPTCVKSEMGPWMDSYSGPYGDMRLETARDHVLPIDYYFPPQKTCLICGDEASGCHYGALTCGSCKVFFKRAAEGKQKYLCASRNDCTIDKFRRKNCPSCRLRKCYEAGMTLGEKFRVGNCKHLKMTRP

SMILES	fold improved activities compared to compound 6 (14228) (androgen receptor (AR))	IC50 (androgen receptor (AR); eGFP IC50 (μM), Series 1)	IC50 (androgen receptor (AR); [1])	inhibition of YFP-V7 driven luciferase expression (YFP-V7)	inhibition of YFP-AR driven luciferase expression (YFP-AR)	inhibition of cell growth, PC3 (AR-negative) (PC3 cells)	inhibition of AR v567es transcriptional activity (AR v567es)	IC50 (AR Y594A mutant)	inhibition at 3 µM (androgen receptor (AR); LNCaP, read-out: % Inhibition (3 μM))
Brc1ncn(-c2csc(N3CCOCC3)n2)c1Br [Compound 14449]	2 fold	0.1 µM	0.12 ± 0.01 µM	could be inhibited	could be inhibited	ineffective	could inhibit	3000 to 6000 nM	–
c1ccc(-c2csc(N3CCOCC3)n2)cc1 [Compound 14228, 4-(4-phenylthiazol-2-yl)morpholine]	–	0.33 µM	0.274 µM	could be inhibited	could be inhibited	no effect	could inhibit	3000 to 6000 nM	110%
